Structures can show the parent of a compound that is named as a salt.
Biological target: T1, HiBiT tagged PARP14 (Homo sapiens, UniProt Q460N5)
T1 construct: engineered to contain a HiBiT tag on both alleles of the PARP14 gene; endogenous in cells; host or cells: Jurkat cells stably transfected with LgBiT (Promega), PARP14 locus edited by CRISPR/Cas9
Experiment: HiBiT assay for the degradation of PARP14 (HiBiT tagged PARP14 in LgBiT expressing Jurkat cells, 2 or 24 hours)
Type: cell-based
Conditions: Assay B (Example B): HiBiT tagged PARP14 degradation in LgBiT expressing Jurkat cells, read-out: DC50
In short: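 Luminescence from HiBiT–LgBiT complementation served as proxy for endogenous PARP14 level in edited LgBiT Jurkat cells (5,000/well). After 2 or 24 h compound exposure at 37 °C, signal read with Live Cell Substrate, expressed as % of 0.1% DMSO control, and fitted (4-parameter, free Hill) for DC50.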

T1 sequence (Q460N5 whole entry): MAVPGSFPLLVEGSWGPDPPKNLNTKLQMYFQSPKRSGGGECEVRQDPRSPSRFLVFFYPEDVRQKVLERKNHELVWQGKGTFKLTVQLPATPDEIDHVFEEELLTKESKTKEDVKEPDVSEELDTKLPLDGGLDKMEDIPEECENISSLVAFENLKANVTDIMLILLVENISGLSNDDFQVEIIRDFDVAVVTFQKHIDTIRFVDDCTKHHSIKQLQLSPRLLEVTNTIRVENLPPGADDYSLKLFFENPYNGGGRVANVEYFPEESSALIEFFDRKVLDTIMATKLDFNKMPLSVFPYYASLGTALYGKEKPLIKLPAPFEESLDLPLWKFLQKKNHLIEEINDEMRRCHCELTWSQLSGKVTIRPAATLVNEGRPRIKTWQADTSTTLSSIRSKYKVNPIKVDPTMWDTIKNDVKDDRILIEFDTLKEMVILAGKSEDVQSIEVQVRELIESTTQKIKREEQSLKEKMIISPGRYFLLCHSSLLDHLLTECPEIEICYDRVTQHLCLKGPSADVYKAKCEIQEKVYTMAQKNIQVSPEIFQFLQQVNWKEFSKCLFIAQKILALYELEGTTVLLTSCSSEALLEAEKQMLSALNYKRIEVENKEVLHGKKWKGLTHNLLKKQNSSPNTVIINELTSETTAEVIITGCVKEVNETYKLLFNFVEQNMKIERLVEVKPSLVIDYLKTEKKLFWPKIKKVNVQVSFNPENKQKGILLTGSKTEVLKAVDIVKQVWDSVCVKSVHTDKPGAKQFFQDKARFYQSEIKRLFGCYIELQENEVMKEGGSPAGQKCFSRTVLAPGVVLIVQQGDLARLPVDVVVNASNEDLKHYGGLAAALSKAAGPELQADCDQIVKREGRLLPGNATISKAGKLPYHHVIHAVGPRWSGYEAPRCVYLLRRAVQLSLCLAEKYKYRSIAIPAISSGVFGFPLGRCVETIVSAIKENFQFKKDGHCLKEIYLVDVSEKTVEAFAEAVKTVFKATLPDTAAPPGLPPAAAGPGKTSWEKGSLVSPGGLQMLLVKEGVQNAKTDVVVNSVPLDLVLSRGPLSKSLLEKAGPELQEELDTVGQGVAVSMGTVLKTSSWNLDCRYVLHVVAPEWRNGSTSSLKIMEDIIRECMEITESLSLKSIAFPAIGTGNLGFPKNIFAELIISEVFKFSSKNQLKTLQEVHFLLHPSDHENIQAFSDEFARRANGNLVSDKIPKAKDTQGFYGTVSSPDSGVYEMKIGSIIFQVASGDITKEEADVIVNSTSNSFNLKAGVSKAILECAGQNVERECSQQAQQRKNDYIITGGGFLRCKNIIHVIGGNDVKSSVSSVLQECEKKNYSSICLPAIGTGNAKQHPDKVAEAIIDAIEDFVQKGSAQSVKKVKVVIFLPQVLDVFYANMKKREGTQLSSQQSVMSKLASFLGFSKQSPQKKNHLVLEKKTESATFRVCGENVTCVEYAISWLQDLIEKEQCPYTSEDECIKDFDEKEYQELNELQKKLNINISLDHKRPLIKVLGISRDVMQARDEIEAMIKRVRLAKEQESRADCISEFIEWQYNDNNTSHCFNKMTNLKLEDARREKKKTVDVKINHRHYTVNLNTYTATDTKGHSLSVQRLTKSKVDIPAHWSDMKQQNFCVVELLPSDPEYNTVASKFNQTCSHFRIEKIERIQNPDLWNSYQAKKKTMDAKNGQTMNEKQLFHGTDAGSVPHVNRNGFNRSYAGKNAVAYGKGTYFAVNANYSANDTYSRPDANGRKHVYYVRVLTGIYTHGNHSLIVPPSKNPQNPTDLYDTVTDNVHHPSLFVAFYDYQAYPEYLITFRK

DC50 | SMILES
< 30 nM | O=C1CCN(c2ccc(N3CCC(CN4CCC(COc5cc(F)c6c(=O)[nH]c(COC7CCOCC7)nc6c5)CC4)CC3)c(F)c2)C(=O)N1 [Example 180, 1-(3-fluoro-4-(4-((4-(((5-fluoro-4-oxo-2-(((tetrahydro-2H-pyran-4-yl)oxy)methyl)-3,4-dihydroquinazolin-7-yl)oxy)methyl)piperidin-1-yl)methyl)piperidin-1-yl)phenyl)dihydropyrimidine-2,4(1H,3H)-dione]
< 30 nM | Cn1nc(N2CCC(=O)NC2=O)c2ccc(N3CCC(CN4CCC(COc5cc(F)c6c(=O)[nH]c(CSC7CCOCC7)nc6c5)CC4)CC3)cc21 [Example 181, 1-(6-(4-((4-(((5-fluoro-4-oxo-2-(((tetrahydro-2H-pyran-4-yl)thio)methyl)-3,4-dihydroquinazolin-7-yl)oxy)methyl)piperidin-1-yl)methyl)piperidin-1-yl)-1-methyl-1H-indazol-3-yl)dihydropyrimidine-2,4(1H,3H)-dione]
< 30 nM | Cn1nc(N2CCC(=O)NC2=O)c2cc(F)c(N3CCC(CN4CCC(COc5cc(F)c6c(=O)[nH]c(COC7CCOCC7)nc6c5)CC4)CC3)cc21 [Example 183, 1-(5-fluoro-6-(4-((4-(((5-fluoro-4-oxo-2-(((tetrahydro-2H-pyran-4-yl)oxy)methyl)-3,4-dihydroquinazolin-7-yl)oxy)methyl)piperidin-1-yl)methyl)piperidin-1-yl)-1-methyl-1H-indazol-3-yl)dihydropyrimidine-2,4(1H,3H)-dione]
< 30 nM | Cn1nc(N2CCC(=O)NC2=O)c2ccc(N3CCC(COc4cc(F)c5c(=O)[nH]c(COC6CCOCC6)nc5c4)CC3)cc21 [Example 184, 1-(6-(4-(((5-fluoro-4-oxo-2-(((tetrahydro-2H-pyran-4-yl)oxy)methyl)-3,4-dihydroquinazolin-7-yl)oxy)methyl)piperidin-1-yl)-1-methyl-1H-indazol-3-yl)dihydropyrimidine-2,4(1H,3H)-dione]
< 30 nM | Cn1nc(N2CCC(=O)NC2=O)c2ccc(C3CCN(CCOc4cc(F)c5c(=O)[nH]c(CSC6CCOCC6)nc5c4)CC3)cc21 [Example 186, 1-(6-(1-(2-((5-fluoro-4-oxo-2-(((tetrahydro-2H-pyran-4-yl)thio)methyl)-3,4-dihydroquinazolin-7-yl)oxy)ethyl)piperidin-4-yl)-1-methyl-1H-indazol-3-yl)dihydropyrimidine-2,4(1H,3H)-dione]

Second part, the compound before the results:

SMILES | DC50
O=C1CCC(Nc2ccc(N3CCC(C(=O)N4CCC(N5CCC(COc6cc(F)c7c(=O)[nH]c(COC8CCOCC8)nc7c6)CC5)CC4)CC3)c(F)c2)C(=O)N1 (stereo not drawn) [Example 172, 3-((3-fluoro-4-(4-(4-(((5-fluoro-4-oxo-2-(((tetrahydro-2H-pyran-4-yl)oxy)methyl)-3,4-dihydroquinazolin-7-yl)oxy)methyl)-[1,4′-bipiperidine]-1′-carbonyl)piperidin-1-yl)phenyl)amino)piperidine-2,6-dione] | < 30 nM
O=C1CCC(Nc2ccc(N3CCC(C(=O)N4CCC(N5CCC(COc6cc(F)c7c(=O)[nH]c(CSC8CCOCC8)nc7c6)CC5)CC4)CC3)c(F)c2)C(=O)N1 (stereo not drawn) [Example 173, 3-((3-fluoro-4-(4-(4-(((5-fluoro-4-oxo-2-(((tetrahydro-2H-pyran-4-yl)thio)methyl)-3,4-dihydroquinazolin-7-yl)oxy)methyl)-[1,4′-bipiperidine]-1′-carbonyl)piperidin-1-yl)phenyl)amino)piperidine-2,6-dione formate] | < 30 nM
O=C1CCC(Nc2ccc(N3CCN(CC(=O)N4CCC(COc5cc(F)c6c(=O)[nH]c(CSC7CCOCC7)nc6c5)CC4)CC3)c(F)c2)C(=O)N1 (stereo not drawn) [Example 174, 3-((3-fluoro-4-(4-(2-(4-(((5-fluoro-4-oxo-2-(((tetrahydro-2H-pyran-4-yl)thio)methyl)-3,4-dihydroquinazolin-7-yl)oxy)methyl)piperidin-1-yl)-2-oxoethyl)piperazin-1-yl)phenyl)amino)piperidine-2,6-dione] | < 30 nM
O=C1CCC(Nc2ccc(N3CCC(C(=O)N4CCC(N5CCC(COc6cc(F)c7c(=O)[nH]c(CCC8CCOCC8)nc7c6)CC5)CC4)CC3)c(F)c2)C(=O)N1 (stereo not drawn) [Example 175, 3-((3-fluoro-4-(4-(4-(((5-fluoro-4-oxo-2-(2-(tetrahydro-2H-pyran-4-yl)ethyl)-3,4-dihydroquinazolin-7-yl)oxy)methyl)-[1,4′-bipiperidine]-1′-carbonyl)piperidin-1-yl)phenyl)amino)piperidine-2,6-dione] | < 30 nM
O=C1CCC(Nc2ccc(N3CCC(C(=O)N4CCC(N5CCC(COc6cc(F)c7c(=O)[nH]c(CSC8CCOCC8)nc7c6)CC5)C4)CC3)c(F)c2)C(=O)N1 (stereo not drawn) [Example 176, 3-((3-fluoro-4-(4-(3-(4-(((5-fluoro-4-oxo-2-(((tetrahydro-2H-pyran-4-yl)thio)methyl)-3,4-dihydroquinazolin-7-yl)oxy)methyl)piperidin-1-yl)pyrrolidine-1-carbonyl)piperidin-1-yl)phenyl)amino)piperidine-2,6-dione] | < 30 nM
O=C1CCC(Nc2ccc(N3CCC(C(=O)N4CC(N5CCC(COc6cc(F)c7c(=O)[nH]c(COC8CCOCC8)nc7c6)CC5)C4)CC3)c(F)c2)C(=O)N1 (stereo not drawn) [Example 177, 3-((3-fluoro-4-(4-(3-(4-(((5-fluoro-4-oxo-2-(((tetrahydro-2H-pyran-4-yl)oxy)methyl)-3,4-dihydroquinazolin-7-yl)oxy)methyl)piperidin-1-yl)azetidine-1-carbonyl)piperidin-1-yl)phenyl)amino)piperidine-2,6-dione] | < 30 nM
O=C1CCC(Nc2ccc(N3CCC(C(=O)N4CC(N5CCC(COc6cc(F)c7c(=O)[nH]c(CC8CC8)nc7c6)CC5)C4)CC3)c(F)c2)C(=O)N1 (stereo not drawn) [Example 178, 3-((4-(4-(3-(4-(((2-(cyclopropylmethyl)-5-fluoro-4-oxo-3,4-dihydroquinazolin-7-yl)oxy)methyl)piperidin-1-yl)azetidine-1-carbonyl)piperidin-1-yl)-3-fluorophenyl)amino)piperidine-2,6-dione] | < 30 nM
O=C1CCC(Nc2ccc(N3CCC(N4CC(CC(=O)N5CCC(COc6cc(F)c7c(=O)[nH]c(CSC8CCOCC8)nc7c6)CC5)C4)CC3)c(F)c2)C(=O)N1 (stereo not drawn) [Example 179, 3-((3-fluoro-4-(4-(3-(2-(4-(((5-fluoro-4-oxo-2-(((tetrahydro-2H-pyran-4-yl)thio)methyl)-3,4-dihydroquinazolin-7-yl)oxy)methyl)piperidin-1-yl)-2-oxoethyl)azetidin-1-yl)piperidin-1-yl)phenyl)amino)piperidine-2,6-dione] | < 30 nM
Cn1nc(N2CCC(=O)NC2=O)c2cc(F)c(N3CCC(CN4CCC(COc5cc(F)c6c(=O)[nH]c(CSC7CCOCC7)nc6c5)CC4)CC3)cc21 [Example 182, 1-(5-fluoro-6-(4-((4-(((5-fluoro-4-oxo-2-(((tetrahydro-2H-pyran-4-yl)thio)methyl)-3,4-dihydroquinazolin-7-yl)oxy)methyl)piperidin-1-yl)methyl)piperidin-1-yl)-1-methyl-1H-indazol-3-yl)dihydropyrimidine-2,4(1H,3H)-dione] | < 30 nM
Cn1nc(N2CCC(=O)NC2=O)c2cc(F)c(N3CC(N4CCC(COc5cc(F)c6c(=O)[nH]c(CSC7CCOCC7)nc6c5)CC4)C3)cc21 [Example 185, 1-(5-fluoro-6-(3-(4-(((5-fluoro-4-oxo-2-(((tetrahydro-2H-pyran-4-yl)thio)methyl)-3,4-dihydroquinazolin-7-yl)oxy)methyl)piperidin-1-yl)azetidin-1-yl)-1-methyl-1H-indazol-3-yl)dihydropyrimidine-2,4(1H,3H)-dione] | < 30 nM
